This note sets out measurements from patent publication US7122693B2, “Acetaldehyde acetal compounds, their synthesis, and uses thereof” (Shire BioChem Inc., priority 1988, dated 2006).

“And” between values parts separate entries of the source, which are not always exact repeats. Equal entries are not always repeated. Where two headings read alike, the source gives them in different places.

Holding throughout (format): cell-based
The test system of data set [1] is HIV-1 in MT-4 cells. Nature of the data set: Viable cell counts, cytolytic effect of HIV-1 on MT-4 cells. The note with it: for viability at 2 µg/mL: Human immunodeficiency virus 1, MT4, 144 h. The protocol: (§1) In vitro testing was conducted on several of the compounds of this invention to determine their inhibitory properties. The concentrations reported are μg/ml in the incubation media which affect the susceptibility of a continuous line of T-cells developed at the Lady Davis Institute for Medical Research (Montreal) by Dr. Mark A. Wainberg toward infection by HIV-1 following a protocol similar to that of H. Mitsuya and S. Broder, “Inhibition of the in vitro infectivity and cytopathic effect of human T-lymphotropic virus type III/lymphadenopathy-associated virus (HTLV-III/LAV) by 2′3′-dideoxynucleosides”, Proc. Natl. Acad. Sci. USA, 83, pp. 1911–15 (1986). Protection of the cell line from infection was monitored by staining with monoclonal antibodies against viral proteins in the standard manner (Table 1). In all experiments, comparisons were made with the drug AZT as the control. In order to confirm the results, the drug effects were monitored by measuring reverse transcriptase (RT) activity in the U-937 line of human monocytic cells as assayed in the usual manner with tritiated thymidine triphosphate (TTP) (Table 2). The drug effects on cell viability as measured by the well-know cytolytic effects of HIV-1 on the MT-4 cell line was evaluated in the accepted manner (Table 1).

For data set [2], the system named is HIV-1 in H-9 cells. Nature of the data set: RT activity, HIV-1 production in H-9 cells (Table 3).
For data set [3], the system named is HIV-1 in MT-4 cells. The data set can be described thus: P-24 immunofluorescence in MT-4 cells (staining with monoclonal antibodies against viral proteins). To be noted: 2 μg/ml. The protocol:
as §1

Data set [4] deals with HIV-1 in MT-4 cells. Nature of the data set: Reverse transcriptase assay in MT-4 cells. The note with it: 2 μg/ml.
The subject of data set [5] is HIV-1 in H-9 cells. The data set can be described thus: Reverse transcriptase assay, HIV-1 production in H-9 cells (Table 2). The note with it: 2 μg/ml.
[6] abbreviates: MT-4 cells, HIV-1, 6 days in culture, 2 μg/ml of compound, read-out: Cell Viability %.
Where [7] appears, read: 7 days in culture (row between 14 and 21).
Where [8] appears, read: MT-4 cells, HIV-1, 6 days in culture, 2 μg/ml of compound.

Turning to `O=c1[nH]cnc2c1ncn2C1CSC(CO)O1` (stereo not drawn) [cis-LVI, Cis-2-hydroxymethyl-5-(6′-hydroxypurin-N-9′-yl)-1,3-oxathiolane], in data set [1] (setting [6]), the viability at 2 µg/mL was determined as 11%.
Turning to `CN(C)C=Nc1ccn(C2CSC(CO)O2)c(=O)n1` (stereo not drawn) [cis-LIII, Cis-2-hydroxymethyl-5-(N-dimethylaminomethylenecytosin-1′-yl)-1,3-oxathiolane], in data set [1] (setting [6]), the viability at 2 µg/mL was found to be 18%.
As to `Nc1ccn(C2COC(CO)O2)c(=O)n1` (stereo not drawn) [trans-(XXXVI), trans-2-hydromethyl-4-(cytosin-1′-yl)-1,3-dioxolane], in data set [2] (inhibitor 10 μM), the “RT activity (cpm) after 8 days” value is listed as 4,608 cpm, the “RT activity (cpm) after 12 days” value was 83,462 cpm and the “RT activity (cpm) after 26 days” value is given as 312,478 cpm. In addition, in data set [2] (inhibitor 50 μM), the “RT activity (cpm) after 8 days” value is 1,319 cpm, the “RT activity (cpm) after 12 days” value was 758 cpm and the “RT activity (cpm) after 26 days” value is 1,732 cpm.
For the compound `Cc1cn(C2CC(N=[N+]=[N-])C(CO)O2)c(=O)[nH]c1=O` (centres unmarked) [AZT, 3′-azido-2′,3′-dideoxythymidine, reference compound], the “RT activity (cpm) after 8 days” value in data set [2] (inhibitor 20 μM) was 633 cpm and 587 cpm. Moreover, the “RT activity (cpm) after 26 days” value in data set [2] (inhibitor 20 μM) was 821 cpm and 679 cpm. For the same compound, the viability at 2 µg/mL in data set [1] (read-out: Cell Viability %, MT-4 cells, HIV-1, 6 days in culture, 2 μg/ml of compound) turned out to be 88.6%. The “% Immunofluorescent Cells (P-24)” value in data set [3] (3 days in culture) and in data set [3] (6 days in culture) was 1.0% throughout. The “RT Activity (CPM × 1000)/ml” value in data set [4] (3 days in culture) is 1.564 (CPM × 1000)/ml; in data set [4] (6 days in culture) it was 1.748 (CPM × 1000)/ml; in data set [5] (5 days in culture), 3.346 (CPM × 1000)/ml; in data set [5] (setting [7]), 2.997 (CPM × 1000)/ml; in data set [5] (8 days in culture) it was 3.414 (CPM × 1000)/ml; in data set [5] (11 days in culture), 2.918 (CPM × 1000)/ml. The “RT Activity (CPM × 1000)/ml” value in data set [5] (14 days in culture) was 8.320 (CPM × 1000)/ml; in data set [5] (21 days in culture), 3.111 (CPM × 1000)/ml; in data set [5] (25 days in culture), 15.88 (CPM × 1000)/ml; in data set [5] (29 days in culture) it was 32.08 (CPM × 1000)/ml; in data set [5] (33 days in culture), 612.2 (CPM × 1000)/ml; in data set [5] (37 days in culture) it was 878.2 (CPM × 1000)/ml. Further, the “RT Activity (CPM × 1000)/ml” value in data set [5] (41 days in culture) is listed as 994.0 (CPM × 1000)/ml; in data set [5] (45 days in culture), 32.91 (CPM × 1000)/ml.
For `Nc1ccn(C2CSC(CO)O2)c(=O)n1` (stereo not drawn) [trans-XI, trans-2-hydroxymethyl-5-(cytosin-1′-yl)-1,3-oxathiolane], the “Cell Viability %” value in data set [1] (setting [8]) was determined as 24%.
Turning to `Nc1ccn(C2CSC(CO)O2)c(=O)n1` (stereo not drawn) [cis-XI, Cis-2-hydroxymethyl-5-(cytosin-1′-yl)-1,3-oxathiolane], the “Cell Viability %” value in data set [1] (setting [8]) turned out to be 87.4%. For the same compound, the results for the “% Immunofluorescent Cells (P-24)” value in data set [3] (3 days in culture) and in data set [3] (6 days in culture) were 1.0% and 7.6%, respectively. In addition, the “RT Activity (CPM × 1000)/ml” value was 2.381 (CPM × 1000)/ml in data set [4] (3 days in culture); 2.301 (CPM × 1000)/ml in data set [4] (6 days in culture); 3.077 (CPM × 1000)/ml in data set [5] (5 days in culture); 2.399 (CPM × 1000)/ml in data set [5] (setting [7]); 5.853 (CPM × 1000)/ml in data set [5] (8 days in culture); 3.560 (CPM × 1000)/ml in data set [5] (11 days in culture). In addition, the “RT Activity (CPM × 1000)/ml” value in data set [5] (14 days in culture) is recorded as 2.872 (CPM × 1000)/ml; in data set [5] (21 days in culture), 2.907 (CPM × 1000)/ml; in data set [5] (25 days in culture), 4.020 (CPM × 1000)/ml; in data set [5] (29 days in culture), 3.756 (CPM × 1000)/ml; in data set [5] (33 days in culture), 3.803 (CPM × 1000)/ml; in data set [5] (37 days in culture), 4.193 (CPM × 1000)/ml. Besides, the “RT Activity (CPM × 1000)/ml” value is 4.515 (CPM × 1000)/ml in data set [5] (41 days in culture) and 3.441 (CPM × 1000)/ml in data set [5] (45 days in culture).
Regarding `Nc1ccn(C2C[S+]([O-])C(CO)O2)c(=O)n1` (single isomer, unassigned) [cis-XII (b), Cis-2-hydroxymethyl-5-(cytosin-1′-yl)-3-oxo-1,3-oxathiolane], in data set [1] (setting [6]), the viability at 2 µg/mL was 14%.
Take `O=c1ccn(C2CSC(CO)O2)c(=O)[nH]1` (stereo not drawn) [cis-XVIII, Cis-2-hydroxymethyl-5-(uracil-N-1′-yl)-1,3-oxathiolane]: in data set [1] (setting [6]), the viability at 2 µg/mL turned out to be 14%.
